Results from patent publication US20060009433A1, “Neuroprotective spirostenol pharmaceutical compositions” (priority 2003, published 2006).
pIC50: −log10 of the molar value. “Also recorded” adds a separate entry of the source.

What was measured:
[1] = test system: differentiated human NT2N neurons; experiment: MTT assay, Aβ1-42-induced toxicity on differentiated NT2N neurons; assay type: cell-based; details: for protection against Aβ-induced toxicity: 25 μM Aβ1-42, 72 hours
rat PC12 cells = experiment: Trypan blue dye exclusion assay, PC12 cells (Example I); assay type: cell-based; details: 100 μM steroid, 72 hours
Experimental: Rat PC12 cells were cultured as previously described. Yao et al., Brain Res. 889, 181-190 (2001). Human NT2 precursor (Ntera2/D1 teratocarcinoma) cells were obtained from Stratagene (La Jolla, Calif.) and cultured following the instructions of the supplier. Differentiated human NT2 neurons (NT2N) were obtained after treatment of the NT2 precursor cells with retinoic acid. Andrews, Dev. […] Aβ was dissolved in media and used either in the aggregated (left overnight at 4° C.) or soluble (containing oligomers such as dimers and tetramers) forms examined by electrophoresis as previously described. Yao et al., Brain Res. (2001). […] Id. Cell viability was measured using the trypan blue exclusion method as previously described. Id. In brief, for these studies, cells were treated for 72 hours with steroids in the presence or absence of increasing concentrations of Aβ. At the end of the incubation, the cells were washed three times with PBS and incubated for 15 minutes with 0.1% trypan blue stain solution at room temperature. After washing three times with PBS, 0.1 N NaOH was added to the cells and trypan blue staining was quantified using the Victor quantitative detection spectrophotometer (EGG-Wallac, Gaithersburg, Md.) at 450 nm. Cell protein levels were determined in the same samples by the method of Bradford (Bradford, Anal. Biochem., 72, 248-254 (1976)), where coomassie blue staining is detected at 590 nm.
The results obtained from using MTT assay were further confirmed with the trypan blue dye exclusion assay. […] Levels of viability were measured using the trypan blue assay as described under Materials and Methods. Results are expressed as fold trypan blue stained cells per total cell protein over control untreated cells. Results shown are means±SD (n=6-12).

Aβ1-42 = Aβ1-42 (Homo sapiens, UniProt P05067); experiment: Aβ aggregation assay (SDS-PAGE, immunoblot); assay type: biochemical; details: 50 μM Aβ1-42; 24 hours at 37° C.
Experimental: At the end of the incubation, proteins were separated by SDS-PAGE on 4-20% gradient acrylamide-bis-acrylamide gel at 125V for 2 hours. Proteins were visualized by coomassie blue staining. Aβ species were identified by immunoblot analysis. Yao, Z. et al., Brain Res. (2001).
The ability of 22R-hydroxycholesterol to alter Aβ aggregation was also examined. […] At the end of the incubation proteins were separated by SDS-PAGE and visualized by coomassie blue (FIG. 6A). Aβ species formed were identified by immunoblotting using an anti-Aβ polyclonal antiserum (FIG. 6B). Aβ aggregation can be seen on the top of the gel and it is absent in control-media lane. […] A 100 kDa band recognized by the Aβ polyclonal antiserum used in all samples, including control-media, probably reflects non-specific binding of the antiserum.

Aβ17-40 = biological target: T1, Aβ17-40 (Homo sapiens, UniProt P05067); experiment: CPBBA, Aβ17-40; assay type: binding
T1 construct: purchased American Peptide Co. (Sunnyvale, Calif.)
Experimental: (§1) At the end of the incubation time, samples were separated by 1.5% agarose (Type I-B) gel electrophoresis and transferred to nitrocellulose membrane (Schleicher & Schuell, Keene, N.H.) in 10×SSC buffer. The membrane was exposed to tritium-sensitive screen and analyzed by phosphoimaging using the Cyclone Storage phosphor system (Packard BioScience, Meridien, Conn.). Image-densitometric analysis was performed using the OptiQuant software (Packard). […] Low molecular weight unincorporated 22i-hydroxycholesterol is separated and eliminated during electrophoresis.

Aβ25-35 = Aβ25-35 (Homo sapiens, UniProt P05067); experiment: CPBBA, Aβ25-35; assay type: binding
Experimental: as §1

Aβ1-40 = biological target: T2, Aβ1-40 (Homo sapiens, UniProt P05067); experiment: CPBBA, Aβ1-40; assay type: binding
T2 construct: purchased American Peptide Co. (Sunnyvale, Calif.)
Experimental: as §1

NT2 cells [2] = experiment: NT2 cell differentiation, phase-contrast morphology; assay type: cell-based, human; details: 25 μM; 3, 6 and 12 days (comparators 6 days)
[3] = test system: PC12 cells, MDA-MB-231 cells or the human glioma cell line U87; experiment: Differentiation in other cell lines; assay type: cell-based; details: data not shown
NT2 cells [4] = experiment: BrdU assay, NT2 cell proliferation; assay type: cell-based, human
NT2 cells [5] = experiment: Expression of neurofilament proteins NF70, NF145, NF200 by NT2 cells (immunoblot); assay type: cell-based, human; details: 6 days
Experimental: Cells were fixed with newly prepared 3.7% formaldehyde for 15 minutes and blocked by blocking reagent (Zymed Laboratories, San Francisco, Calif., USA). Inuunostaining was performed using rabbit anti-NF200, anti-NF145 and anti-NF70 (all at 1:200), and goat anti-GFRα1, anti-GFRα2 and anti-GFRα3 (all at 1:100); Santa Cruz Biotechnology (Santa Cruz, Calif., USA). All antibodies were used at 200 μg/ml. After overnight incubation at 4° C., the immunoreactivity was detected using horseradish peroxidase-conjugated anti-rabbit or anti-mouse IgG for 1 hour at room temperature and visualized using AEC.
Cells were then washed with phosphate-buffered saline (PBS) and lysed with loading buffer. Proteins were resolved by sodium dodecyl sulfate polyacrylamide gel electrophoresis (SDS-PAGE) on 4-20% gradient acrylamide-bis-acrylamide gel at 125 V for 2 hours and electrotransferred onto nitrocellulose membranes. After blocking with 5% nonfat milk, the membranes were subjected to immunoblot analysis by incubation overnight with rabbit anti-NF200, anti-NF145 and anti-NF70 (all at 1:4000) (Chemicon International, Temecula, Calif., USA) and goat anti-GFRα1, anti-GFRα2 and anti-GFRα3 (all at 1:500) (200 μg/ml; Santa Cruz Biotechnology, Inc., Santa Cruz, Calif., USA), goat anti-rabbit or rabbit anti-goat IgG-horseradish peroxidase being used as the secondary antibody (1:5000) (Zymed Laboratories, San Francisco, Calif., USA). Protein bands were visualized using ECL reagents (Amersham Pharmacia Biotech, Piscataway, N.J., USA). Image-densitometric analyses of the immunoreactive protein bands were performed using OptiQuant-image analysis software (Packard BioScience, Meriden, Conn., USA). Glyceraldehyde-3-phosphate dehydrogenase (GAPPH) served as an internal standard.

rat PC12 neuronal cells = experiment: MTT assay, Aβ1-42-induced cytotoxicity in PC12 cells (Example I)

T1 sequence (P05067 688-711 limits assumed): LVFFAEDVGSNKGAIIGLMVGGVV
T2 sequence (P05067 672-711): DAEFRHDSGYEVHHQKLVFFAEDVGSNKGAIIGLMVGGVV
Chain of Aβ1-42 (P05067 672-713): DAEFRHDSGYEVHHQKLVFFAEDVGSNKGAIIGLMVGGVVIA

## CC(C)CC[C@@H](O)[C@@H](C)[C@H]1CC[C@H]2[C@@H]3CC=C4C[C@@H](O)CC[C@]4(C)[C@H]3CC[C@]12C [SP222, 22R-hydroxycholesterol]
[1]; 1 μM compound
  protection against Aβ-induced toxicity: 50%
[1]; 10 μM compound
  protection against Aβ-induced toxicity: 100%
[1]; Homo sapiens, Neuron, NT2T cells, read-out: IC50 of protection from Aβ-induced toxicity
  pIC50: 5.52
Rat PC12 cells
  rescue from Aβ1-42-induced cell death: rescued
  rescue from Aβ25-35-induced cell death: Neither 22R-hydroxycholesterol nor DHEA could rescue
Aβ1-42
  effect on Aβ aggregation: did not affect Aβ aggregation
Aβ17-40; CPBBA
  binding to Aβ17-40: binds
Aβ17-40; CPBBA with various Aβ synthetic peptides
  22R-hydroxycholesterol-binding site in Aβ: amino acids 17-40 of Aβ
Aβ25-35
  binding to Aβ25-35: did not bind
Aβ1-40
  binding to Aβ1-40: barely interacts
NT2 cells [2]
  effect on NT2 cell morphology (differentiation): induced morphologic changes
[3]
  induction of differentiation in PC12, MDA-MB-231 or U87 cells: such an effect was not found
NT2 cells [4]; 25 μM
  NT2 cell proliferation at 25 μM: significantly inhibited
NT2 cells [4]; 50 μM
  NT2 cell proliferation at 50 μM: significantly inhibited
NT2 cells [5]; 1 μM
  NF70 protein level: 83 % of the control level
NT2 cells [5]; 5 μM
  NF145 expression: increase that was apparent at 5 μM
  NF200 protein expression: 210 % of the control value
NT2 cells [5]; 25 μM
  NF145 expression: 56 % of control levels
  NF200 protein expression: 180 % of the control value
NT2 cells [5]; 50 μM
  NF70 protein level: 18 % of the control level
Rat PC12 neuronal cells; MTT, 25 μM Aβ1-42
  rescue from 25 μM Aβ-induced cytotoxicity: rescue all the cells; also recorded: full protection
Rat PC12 neuronal cells; MTT, 50 μM Aβ1-42
  cells rescued in the presence of 50 μM Aβ: 50%
Rat PC12 neuronal cells; MTT, absence of Aβ
  PC12 cell viability, steroid alone: did not affect PC12 cell viability
Rat PC12 neuronal cells; Rattus norvegicus, PC-12, read-out: IC50 of protection from Aβ-induced toxicity
  pIC50: 5.00
Rat PC12 neuronal cells; pretreatment of PC12 cells, data not shown
  protection by pretreatment followed by treatment with Aβ: failed to offer any protection
Rat PC12 neuronal cells; soluble Aβ (oligomers), not shown
  protection against Aβ oligomer-induced toxicity: protected
